Reference: PMC2879651 (Bioanalysis, 2009)
Like-named read-outs stand apart in the source and are kept apart here.

Assays:
[1] = type: in vivo, male FVB/N mice; conditions: for Cmax / MRT: male, FVB/N, mouse, ip, 2 mg/kg; for AUC0→t (AUC0→60 min): 0-60 min
[2] = fatal intoxication after ingestion of Ayahuasca preparation; cited from earlier work
[3] = rats, 1 hour after bufotenine 30 mg/kg s.c.; cited from earlier work

COc1ccc2[nH]cc(CCN(C)C)c2c1 [5-MeO-DMT, 5-Methoxy-N,N-dimethyltryptamine, reference compound]
Cmax ([1]; serum): 298 ± 29 ng/mL
MRT ([1]; serum): 17.6 min
serum concentration at 60 min relative to Cmax ([1]; mice, 60 min after 5-MeO-DMT 2 mg/kg i.p.): 4.4%
AUC0→t (AUC0→90 min) ([1]; mice, serum, after 5-MeO-DMT 2 mg/kg i.p., 0-90 min): 6,000 ± 1,240 µg·min/L
concentration in heart blood of decedent [2]: 1880 ng/mL

CN(C)CCc1c[nH]c2ccc(O)cc12 [Bufotenine, bufotenine]
Cmax ([1]; serum): 10.6 ± 2.3 ng/mL
MRT ([1]; serum): 24.3 min
serum concentration at 90 min ([1]; mice, 90 min after 5-MeO-DMT 2 mg/kg i.p., metabolite): below the LLOQ
systemic exposure (AUC) to bufotenine relative to that to 5-MeO-DMT ([1]; mice, after 5-MeO-DMT 2 mg/kg i.p.): about 1/14
Tmax ([1]; mice, serum, after 5-MeO-DMT 2 mg/kg i.p., bufotenine as metabolite): 13.3 ± 5.8 min
AUC0→t (AUC0→60 min) ([1]; mice, serum, after 5-MeO-DMT 2 mg/kg i.p., metabolite): 388 ± 82 µg·min/L
AUC0→t (AUC0→60 min) ([1]; mice, serum, after 5-MeO-DMT 2 mg/kg i.p., metabolite, listed as bufotenine): 388 µg·min/L
brain over blood ratio of drug concentration [3]: 1/15
